According to patent EP2329817A1, “Retinoic acid receptor antagonists, miR-10a inhibitors and inhibitors of HOXB1 or HOXB3 repressors for treating pancreatic cancer” (Ernst-Moritz-Arndt-Universität Greifswald, priority 2009, dated 2011):
“And” between values parts separate entries of the source, which are not always exact repeats. Identical values can stand only once.

Experiments:
PaTu-S cells = test: Zebrafish embryo xenotransplantation: invasion and metastatic behaviour of pretreated PaTu-S cells; format: in vivo, human
Protocol: Zebrafish (Danio rerio) (Tuebingen line, AIB strain (Albinos) and Tg (fli1:eGFP) were handled in compliance with local animal care regulations and standard protocols of the Netherlands and Germany. Fish were kept at 28°C in aquaria with day/night light cycles (10 h dark versus 14 h light periods). The developing embryos were kept in an incubator at constant temperatures.
The selective RARα antagonist Ro-41-5253 was purchased from Biomol International, dissolved in DMSO and cells were treated overnight prior to injections at a final concentration of 200 nM (50% inhibition at 60nM)^14,15. Retinoic acid (ATRA, Sigma) was added to cells ON at a final concentration of 1 µM.
Cells were stained with CM-Dil (red fluorescence) at a 1:1000 dilution according to the manufacturers protocol (Vybrant, Invitrogen). Cells were suspended in 67% DPBS for injection into embryos. 2dpf zebrafish embryos were dechorionated and tranquilized with tricaine (Sigma). An injection needle (15µm diameter) with a manual injector (Eppendorf; Celltram Vario) was used to inject ∼200 cells into the yolk sac of 2dpf zebrafish embryos. On average 80 embryos were injected for each treatment and embryos with detectable cell scatter 2 h after the transfer (and therefore presumably due to the transfer procedure) were excluded from further analysis. Presence of cells was checked after 2 h incubation at 31°C and embryos were subsequently kept at 35°C. We defined metastasis based on the number of fluorescent cells that were detected outside the yolk sac 2 days after the transfer. Presence of 5 or more cells was considered "metastasised" and percentages of metastasised fish in each experiment were counted. The occurence of micro-metastasis is indicated by cell clusters of ≥4 cells presumably originating from cell division. PaTu-S cells and ASPC1 cells were transfected ON with indicated concentrations of miR-10a siRNA in the presence of ICA-Fectin TM442 (Eurogentec, Belgium). Whole cell lysates were prepared 36h post-transfection and 40 µg of total lysates were separated on 7.5% PAA-gels and blotted with anti E-cadherin, α-catenin, β-catenin (all mAbs, Transduction Labs) and actin antibodies (mAb Sigma-Aldrich, Germany).
Morpholino antisense oligonucleotides were obtained from Gene Tools, LLC (OR, USA) and used as previously described^19. The miR-10a antisense Morpholino sequence is: […]. Standard control Morpholino was […]. Both miR-10a and control Morpholinos were fluorescein labeled. The siRNAs for human HOXB1, human HOXB3 and human RARα were purchased from Santa Cruz Biotechnology (HOXB1: sc-38686, HOXB3: sc-38690 and RARα: sc-29465). EndoPorter (Gene Tools, LLC) was used to deliver Morpholinos and siRNAs into cells and efficiencies for Morpholinos were checked by fluorescence microscopy to be >98%. For the miR-10a siRNA, the sense strand corresponds to […]. The sequence of control siRNA (miR-196a) was […] with the corresponding antisense sequence). 30 µl of each siRNA oligo (50 µM) were annealed by gradually cooling from 98°C to 20°C in a volume of 75 µl annealing buffer (50 mM Tris, pH 7.8, 100 mM NaCl RNAse free). The effect of miR-10a Morpholinos on miR-10a function was tested with a sensor construct: pCS2+ EGFP 4x miR-10 AS containing 4 copies of a miR-10a antisense sequence.

miR-10a = test: Northern blot of miR-10a expression in PaTu-T cells (densitometry); format: cell-based, human; conditions: for miR-10a expression: result in words
Protocol: Northern Blot analysis was performed essentially according to Kloosterman et al. ^16 using a miR-10 LNA probe ([…]) (Exiqon, Denmark). We had previously described protocols for RT-PCR^17 and RT-qPCR^18 . Primers for the RT-PCR were: HOXB1: sc-38686 and HOXB3: sc-38690-PR and RARα: sc-29465-PR all from Santa Cruz Biotechnology. For quantitative RT-PCR we used 100 ng of total RNA and the Roche Master SYBR Green kit. Single-band amplification was verified by melting curve dissociation protocols. A standard curve for β-actin using 1, 5, 10, 100, and 500 ng of total RNA was used for normalization. RT-qPCR primers for HOXB1 were: forward 5'-[…]-3' and reverse 5'-[…]-3' and for HOXB3: forward 5'-[…]-3' and reverse 5'-[…]-3'.
PaTu-T cells were incubated as indicated, with DMSO (Co), 200 nM Ro-41-5253 (RARα inh), control-Morpholino, miR-10a Morpholino, miR-196 siRNA (Co), or RARα siRNA and PaTu-S cells were co-incubated with 1 µM retinoic acid (RA) and control siRNA, RARα siRNA or Ro-415253 and miR-10a expression was evaluated by Northern blot analysis (A). […] RT-PCR control of GAPDH was used as a loading control (not shown). Dose response curves for RA and the RARα antagonist and the RT-PCR control for RARα siRNA treatment are shown in Supplemental Fig. 1. The effect of Ro-415253 on cell migration was analysed in an in vitro migration assay in PaTu-T cells. […] An actin re-blot confirmed equal loading.
PaTu-T cells were incubated for 24h with indicated concentrations of Ro-415253 and miR-10a expression was evaluated by northern blot analysis (upper panel). GAPDH loading control is shown in the lower panel. […] Patu-S cells were incubated tor 24h with indicated concentrations of ATRA and miR-10a expression was evaluated by northern blot analysis (upper panel). GAPDH loading control is shown in the lower panel. (C) Specific "knockdown" of RARα in PaTu-Tcells by RARα siRNA. RT-PCR from total RNA of RARα or control siRNA (Co) treated PaTu-T cells (24h) confirms specific knockdown of RARa. RT-PCR of GAPDH control is shown in the lower panel.

[1] = Experiment 1, Day 1, number of embryos
[2] = Experiment 1, Day 2, number of embryos
[3] = Experiment 1, Day 3, number of embryos
[4] = Experiment 2, Day 1, number of embryos
[5] = Experiment 2, Day 2, number of embryos
[6] = Experiment 2, Day 3, number of embryos

Structure (SMILES): CC1=C(/C=C/C(C)=C/C=C/C(C)=C/C(=O)O)C(C)(C)CCC1 [RA, all trans retinoic acid]
- total >5 (PaTu-S cells; Experiment 1, number of embryos (equals the Day 1 total)): 14
- Migration 5 to 20 (PaTu-S cells; [1]): 11
- Migration <5 (PaTu-S cells; [1]): 1
- Migration >20 (PaTu-S cells; [1]): 3
- total >5 (PaTu-S cells; [1]): 14
- Migration 5 to 20 (PaTu-S cells; [2]): 10
- Migration <5 (PaTu-S cells; [2]): 0
- Migration >20 (PaTu-S cells; [2]): 4
- total >5 (PaTu-S cells; [2]): 14
- Migration 5 to 20 (PaTu-S cells; [3]): 19
- Migration <5 (PaTu-S cells; [3]): 0
- Migration >20 (PaTu-S cells; [3]): 3
- total >5 (PaTu-S cells; [3]): 12
- total >5 (PaTu-S cells; Experiment 1, summary line, percentage in brackets (of embryos alive)): 24.1%
- total >5 (PaTu-S cells; Experiment 2, number of embryos (equals the Day 1 total)): 20
- Migration 5 to 20 (PaTu-S cells; [4]): 15
- Migration <5 (PaTu-S cells; [4]): 1
- Migration >20 (PaTu-S cells; [4]): 5
- total >5 (PaTu-S cells; [4]): 20
- Migration 5 to 20 (PaTu-S cells; [5]): 13
- Migration <5 (PaTu-S cells; [5]): 1
- Migration >20 (PaTu-S cells; [5]): 4
- total >5 (PaTu-S cells; [5]): 17
- Migration 5 to 20 (PaTu-S cells; [6]): 12
- Migration <5 (PaTu-S cells; [6]): 1
- Migration >20 (PaTu-S cells; [6]): 5
- total >5 (PaTu-S cells; [6]): 17
- total >5 (PaTu-S cells; Experiment 2, summary line, percentage in brackets (of embryos alive)): 31.2%
- Average % (observed metastasised embryos) (PaTu-S cells; Table 1, pretreated PaTu-S cells transplanted into zebrafish embryos, average of 2-4 experiments): 27.7%
- %migration, Average (PaTu-S cells; average of experiments, PaTu-S): 27.7%
- %migration (PaTu-S cells; single experiments, PaTu-S): 24.1% and 31.2%

Structure (SMILES): CCCCCCCOc1cc2c(cc1/C(C)=C/c1ccc(C(=O)O)cc1)C(C)(C)CCS2(=O)=O [Ro-41-5253, Benzoic acid, 4-(2-(7-(heptyloxy)-3,4-dihydro-4,4-dimethyl-2H-1-benzothiopyran-6-yl)-1-propenyl)-, S,S-dioxide, (E)]
- reduction of miR-10a expression (miR-10a; densitometric analysis, Ro-41-5253 at 200 nM): 9.4 fold
- miR-10a expression (miR-10a): significant decrease
- miR-10a expression (miR-10a; listed as Ro-415253): Dose dependent repression
